What was measured:
Assay in all cases: relative viability (nuclei count vs DMSO), 5 days (fraction); higher = more cells survive
NCI-H1734 = system: NCI-H1734
Outline: (§1)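 Values are medians from duplicate plates. Each reflects relative viability, defined as the nuclei count of treated wells over that of vehicle wells. Lung cancer cell lines in 1536-well plates were pin-tool dosed one day after seeding with one drug alone or with a fixed anchor-drug dose plus five library-drug doses (not always all listed) in √10 steps, then fixed, stained and imaged at 4× after 5 days.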

NCI-H1755 = system: NCI-H1755
Outline: as §1

NCI-H2126 = system: NCI-H2126
Outline: as §1

LC-2-ad = system: LC-2-ad
Outline: as §1

HCC-44 = system: HCC-44
Outline: as §1

NCI-H3122 = system: NCI-H3122
Outline: as §1

NCI-H1915 = system: NCI-H1915
Outline: as §1

EMC-BAC-2 = system: EMC-BAC-2
Outline: as §1

NCI-H727 = system: NCI-H727
Outline: as §1

HCC-15 = system: HCC-15
Outline: as §1

NCI-H2023 = system: NCI-H2023
Outline: as §1

NCI-H1395 = system: NCI-H1395
Outline: as §1

HOP-62 = system: HOP-62
Outline: as §1

LU99A = system: LU99A
Outline: as §1

SW 1573 = system: SW 1573
Outline: as §1

NCI-H1437 = system: NCI-H1437
Outline: as §1

BEN = system: BEN
Outline: as §1

NCI-H2170 = system: NCI-H2170
Outline: as §1

## Cc1cn(-c2cc(NC(=O)c3ccc(C)c(Nc4nccc(-c5cccnc5)n4)c3)cc(C(F)(F)F)c2)cn1 [Nilotinib] + CC1(C)CCC(c2ccc(Cl)cc2)=C(CN2CCN(c3ccc(C(=O)NS(=O)(=O)c4ccc(N[C@H](CCN5CCOCC5)CSc5ccccc5)c(S(=O)(=O)C(F)(F)F)c4)cc3)CC2)C1 [Navitoclax] (partner 0.5 µM)
NCI-H1734; first compound 0.001 µM
  relative viability: 0.704
NCI-H1734; first compound 0.003162 µM
  relative viability: 1.03
NCI-H1734; first compound 0.01 µM
  relative viability: 1.06
NCI-H1734; first compound 0.03162 µM
  relative viability: 0.434
NCI-H1734; first compound 0.1 µM
  relative viability: 0.543
NCI-H1755; first compound 0.001 µM
  relative viability: 0.969
NCI-H1755; first compound 0.003162 µM
  relative viability: 1.1
NCI-H1755; first compound 0.01 µM
  relative viability: 1.08
NCI-H1755; first compound 0.03162 µM
  relative viability: 0.83
NCI-H1755; first compound 0.1 µM
  relative viability: 0.93
NCI-H2126; first compound 0.001 µM
  relative viability: 0.861
NCI-H2126; first compound 0.003162 µM
  relative viability: 0.891
NCI-H2126; first compound 0.01 µM
  relative viability: 0.89
NCI-H2126; first compound 0.03162 µM
  relative viability: 0.846
NCI-H2126; first compound 0.1 µM
  relative viability: 0.82
LC-2-ad; first compound 0.001 µM
  relative viability: 0.376
LC-2-ad; first compound 0.003162 µM
  relative viability: 0.396
LC-2-ad; first compound 0.01 µM
  relative viability: 0.467
LC-2-ad; first compound 0.03162 µM
  relative viability: 0.339
LC-2-ad; first compound 0.1 µM
  relative viability: 0.365
HCC-44; first compound 0.001 µM
  relative viability: 0.845
HCC-44; first compound 0.003162 µM
  relative viability: 1.22
HCC-44; first compound 0.01 µM
  relative viability: 1.39
HCC-44; first compound 0.03162 µM
  relative viability: 0.844
HCC-44; first compound 0.1 µM
  relative viability: 0.999
NCI-H3122; first compound 0.001 µM
  relative viability: 1.09
NCI-H3122; first compound 0.003162 µM
  relative viability: 1.12
NCI-H3122; first compound 0.01 µM
  relative viability: 1.09
NCI-H3122; first compound 0.1 µM
  relative viability: 0.831
NCI-H1915; first compound 0.001 µM
  relative viability: 0.764
NCI-H1915; first compound 0.003162 µM
  relative viability: 0.813
NCI-H1915; first compound 0.01 µM
  relative viability: 0.807
NCI-H1915; first compound 0.03162 µM
  relative viability: 0.751
NCI-H1915; first compound 0.1 µM
  relative viability: 0.781
EMC-BAC-2; first compound 0.001 µM
  relative viability: 0.919
EMC-BAC-2; first compound 0.003162 µM
  relative viability: 1.45
EMC-BAC-2; first compound 0.01 µM
  relative viability: 1.69
EMC-BAC-2; first compound 0.03162 µM
  relative viability: 0.852
EMC-BAC-2; first compound 0.1 µM
  relative viability: 1.23
NCI-H727; first compound 0.001 µM
  relative viability: 0.478
NCI-H727; first compound 0.01 µM
  relative viability: 0.386
NCI-H727; first compound 0.03162 µM
  relative viability: 0.385
NCI-H727; first compound 0.1 µM
  relative viability: 0.253
HCC-15; first compound 0.001 µM
  relative viability: 0.631
HCC-15; first compound 0.003162 µM
  relative viability: 0.824
HCC-15; first compound 0.01 µM
  relative viability: 0.716
HCC-15; first compound 0.03162 µM
  relative viability: 0.511
HCC-15; first compound 0.1 µM
  relative viability: 0.57
NCI-H2023; first compound 0.001 µM
  relative viability: 0.914
NCI-H2023; first compound 0.003162 µM
  relative viability: 1.13
NCI-H2023; first compound 0.01 µM
  relative viability: 1.32
NCI-H2023; first compound 0.03162 µM
  relative viability: 1.02
NCI-H2023; first compound 0.1 µM
  relative viability: 1.02
NCI-H1395; first compound 0.001 µM
  relative viability: 1.03
NCI-H1395; first compound 0.003162 µM
  relative viability: 0.815
NCI-H1395; first compound 0.01 µM
  relative viability: 1.1
NCI-H1395; first compound 0.03162 µM
  relative viability: 1.11
NCI-H1395; first compound 0.1 µM
  relative viability: 1.05
HOP-62; first compound 0.001 µM
  relative viability: 0.832
HOP-62; first compound 0.003162 µM
  relative viability: 1.05
HOP-62; first compound 0.01 µM
  relative viability: 1.24
HOP-62; first compound 0.03162 µM
  relative viability: 0.94
HOP-62; first compound 0.1 µM
  relative viability: 0.454
LU99A; first compound 0.001 µM
  relative viability: 0.761
LU99A; first compound 0.003162 µM
  relative viability: 0.904
LU99A; first compound 0.01 µM
  relative viability: 0.985
LU99A; first compound 0.03162 µM
  relative viability: 0.76
LU99A; first compound 0.1 µM
  relative viability: 0.479
SW 1573; first compound 0.001 µM
  relative viability: 1.05
SW 1573; first compound 0.003162 µM
  relative viability: 1.23
SW 1573; first compound 0.01 µM
  relative viability: 1.14
SW 1573; first compound 0.03162 µM
  relative viability: 0.792
SW 1573; first compound 0.1 µM
  relative viability: 1.01
NCI-H1437; first compound 0.001 µM
  relative viability: 1.02
NCI-H1437; first compound 0.003162 µM
  relative viability: 1.34
NCI-H1437; first compound 0.01 µM
  relative viability: 1.15
NCI-H1437; first compound 0.03162 µM
  relative viability: 0.766
NCI-H1437; first compound 0.1 µM
  relative viability: 0.925
BEN; first compound 0.001 µM
  relative viability: 0.0648
BEN; first compound 0.003162 µM
  relative viability: 0.0542
BEN; first compound 0.01 µM
  relative viability: 0.0592
BEN; first compound 0.1 µM
  relative viability: 0.0654
NCI-H2170; first compound 0.001 µM
  relative viability: 0.483
NCI-H2170; first compound 0.003162 µM
  relative viability: 0.64
NCI-H2170; first compound 0.01 µM
  relative viability: 0.716
NCI-H2170; first compound 0.03162 µM
  relative viability: 0.56
NCI-H2170; first compound 0.1 µM
  relative viability: 0.771

## CN1CCN(CCOc2cc(OC3CCOCC3)c3c(Nc4c(Cl)ccc5c4OCO5)ncnc3c2)CC1 [Saracatinib] + CC1(C)CCC(c2ccc(Cl)cc2)=C(CN2CCN(c3ccc(C(=O)NS(=O)(=O)c4ccc(N[C@H](CCN5CCOCC5)CSc5ccccc5)c(S(=O)(=O)C(F)(F)F)c4)cc3)CC2)C1 [Navitoclax] (partner 0.5 µM)
NCI-H1734; first compound 0.02 µM
  relative viability: 0.854
NCI-H1734; first compound 0.6325 µM
  relative viability: 0.767
NCI-H1734; first compound 2 µM
  relative viability: 0.697
NCI-H1755; first compound 0.02 µM
  relative viability: 0.981
NCI-H1755; first compound 0.2 µM
  relative viability: 0.681
NCI-H1755; first compound 0.6325 µM
  relative viability: 0.874
NCI-H1755; first compound 2 µM
  relative viability: 0.588
NCI-H2126; first compound 0.02 µM
  relative viability: 0.876
NCI-H2126; first compound 0.2 µM
  relative viability: 0.747
NCI-H2126; first compound 0.6325 µM
  relative viability: 0.887
NCI-H2126; first compound 2 µM
  relative viability: 0.684
LC-2-ad; first compound 0.02 µM
  relative viability: 0.453
LC-2-ad; first compound 0.6325 µM
  relative viability: 0.448
LC-2-ad; first compound 2 µM
  relative viability: 0.348
HCC-44; first compound 0.02 µM
  relative viability: 1.06
HCC-44; first compound 0.2 µM
  relative viability: 0.829
HCC-44; first compound 0.6325 µM
  relative viability: 1.08
HCC-44; first compound 2 µM
  relative viability: 1.04
NCI-H3122; first compound 0.02 µM
  relative viability: 1.02
NCI-H3122; first compound 0.6325 µM
  relative viability: 0.942
NCI-H3122; first compound 2 µM
  relative viability: 0.838
NCI-H1915; first compound 0.02 µM
  relative viability: 0.813
NCI-H1915; first compound 0.2 µM
  relative viability: 0.456
NCI-H1915; first compound 0.6325 µM
  relative viability: 0.8
NCI-H1915; first compound 2 µM
  relative viability: 0.757
EMC-BAC-2; first compound 0.02 µM
  relative viability: 1.15
EMC-BAC-2; first compound 0.2 µM
  relative viability: 1.16
EMC-BAC-2; first compound 0.6325 µM
  relative viability: 1.15
EMC-BAC-2; first compound 2 µM
  relative viability: 0.993
NCI-H727; first compound 0.02 µM
  relative viability: 0.499
NCI-H727; first compound 0.2 µM
  relative viability: 0.285
NCI-H727; first compound 0.6325 µM
  relative viability: 0.48
NCI-H727; first compound 2 µM
  relative viability: 0.225
HCC-15; first compound 0.02 µM
  relative viability: 0.655
HCC-15; first compound 0.2 µM
  relative viability: 0.545
HCC-15; first compound 0.6325 µM
  relative viability: 0.65
HCC-15; first compound 2 µM
  relative viability: 0.558
NCI-H2023; first compound 0.02 µM
  relative viability: 1.04
NCI-H2023; first compound 0.2 µM
  relative viability: 0.808
NCI-H2023; first compound 0.6325 µM
  relative viability: 1.02
NCI-H2023; first compound 2 µM
  relative viability: 0.987
NCI-H1395; first compound 0.02 µM
  relative viability: 1.37
NCI-H1395; first compound 0.2 µM
  relative viability: 0.902
NCI-H1395; first compound 0.6325 µM
  relative viability: 1.09
NCI-H1395; first compound 2 µM
  relative viability: 1.08
HOP-62; first compound 0.02 µM
  relative viability: 1.01
HOP-62; first compound 0.2 µM
  relative viability: 0.804
HOP-62; first compound 0.6325 µM
  relative viability: 1.25
HOP-62; first compound 2 µM
  relative viability: 1.1
LU99A; first compound 0.02 µM
  relative viability: 0.818
LU99A; first compound 0.2 µM
  relative viability: 0.629
LU99A; first compound 0.6325 µM
  relative viability: 0.847
LU99A; first compound 2 µM
  relative viability: 0.865
SW 1573; first compound 0.02 µM
  relative viability: 0.958
SW 1573; first compound 0.2 µM
  relative viability: 0.969
SW 1573; first compound 0.6325 µM
  relative viability: 0.919
SW 1573; first compound 2 µM
  relative viability: 0.838
NCI-H1437; first compound 0.02 µM
  relative viability: 1.11
NCI-H1437; first compound 0.2 µM
  relative viability: 1.12
NCI-H1437; first compound 0.6325 µM
  relative viability: 1.11
NCI-H1437; first compound 2 µM
  relative viability: 1.03
BEN; first compound 0.02 µM
  relative viability: 0.0867
BEN; first compound 0.2 µM
  relative viability: 0.0774
BEN; first compound 0.6325 µM
  relative viability: 0.0714
BEN; first compound 2 µM
  relative viability: 0.0584
NCI-H2170; first compound 0.02 µM
  relative viability: 0.57
NCI-H2170; first compound 0.2 µM
  relative viability: 0.564
NCI-H2170; first compound 0.6325 µM
  relative viability: 0.609
NCI-H2170; first compound 2 µM
  relative viability: 0.39

— the supplement of paper PMC10307832
